Converted amounts (≈) assume the structure as drawn.
Experiments:
Bacillus brevis ATCC8246 = type: cell-based; set-up: key: ++: inhibition; +: weak inhibition; −: no inhibition
Bacillus subtilis 168 = assay: Agar bioassay, growth suppression seen as clear zone; type: cell-based; set-up: key: ++: inhibition; +: weak inhibition; −: no inhibition; conditions: indicator strain Bacillus subtilis 168
[1] = test system: Bacillus cereus ATCC14579; type: cell-based; set-up: key: ++: inhibition; +: weak inhibition; −: no inhibition
[2] = test system: Bacillus licheniformis ATCC9789; type: cell-based; set-up: key: ++: inhibition; +: weak inhibition; −: no inhibition
Micrococcus luteus = type: cell-based; set-up: key: ++: inhibition; +: weak inhibition; −: no inhibition
Bacillus pumilus = type: cell-based; set-up: key: ++: inhibition; +: weak inhibition; −: no inhibition
Bacillus subtilis CU1065 = assay: Agar bioassay, growth suppression seen as clear zone; type: cell-based; set-up: key: ++: inhibition; +: weak inhibition; −: no inhibition; conditions: indicator strain Bacillus subtilis CU1065
Bacillus subtilis HB0042 = assay: as above; type: cell-based; set-up: key: ++: inhibition; +: weak inhibition; −: no inhibition; conditions: indicator strain Bacillus subtilis HB0042
Bacillus sphaericus = type: cell-based; set-up: key: ++: inhibition; +: weak inhibition; −: no inhibition
Paenibacillus polymyxa = type: cell-based; set-up: key: ++: inhibition; +: weak inhibition; −: no inhibition
[3] = test system: Paenibacillus granivorans; type: cell-based; set-up: key: ++: inhibition; +: weak inhibition; −: no inhibition
Bacillus megaterium 7A1 = type: cell-based; set-up: key: ++: inhibition; +: weak inhibition; −: no inhibition
Arthrobacter sp. = type: cell-based; set-up: key: ++: inhibition; +: weak inhibition; −: no inhibition
Staphylococcus aureus = assay: Agar bioassay, growth suppression seen as clear zone; type: cell-based; set-up: key: ++: inhibition; +: weak inhibition; −: no inhibition; conditions: indicator strain Staphylococcus aureus
E. coli K12 = assay: as above; type: cell-based; set-up: key: ++: inhibition; +: weak inhibition; −: no inhibition; conditions: indicator strain E. coli K12
Klebsiella terrigena = assay: as above; type: cell-based; set-up: key: ++: inhibition; +: weak inhibition; −: no inhibition; conditions: indicator strain Klebsiella terrigena
Pseudomonas sp. = assay: as above; type: cell-based; set-up: key: ++: inhibition; +: weak inhibition; −: no inhibition; conditions: indicator strain Pseudomonas sp.
Erwinia caratovora = type: cell-based; set-up: key: ++: inhibition; +: weak inhibition; −: no inhibition
[4] = test system: B. anthracis strain Sterne; type: cell-based, Bacillus anthracis
Streptococcus pyogenes = type: cell-based
Listeria monocytogenes = type: cell-based
[5] = test system: Enterococcus faecalis st. U503 [VRE]; type: cell-based
[6] = test system: Staphylococcus aureus st. NRS384/USA300 [MRSA]; type: cell-based
B. amylo. FZB42 = type: cell-based, Bacillus amyloliquefaciens
B. pumilus ATCC 7061 = type: cell-based, Bacillus pumilus
B. amylo. (NRRL B-14393) = type: cell-based, Bacillus amyloliquefaciens
[7] = test system: any other tested bacterium; type: cell-based
[8] = test system: B. anthracis strain Sterne; type: cell-based, Bacillus anthracis; remark: listed apart in the source
B. anthracis = type: cell-based, Bacillus anthracis

## CC[C@H](C)[C@H](NC(=O)c1nc(-c2nc(-c3csc(-c4nc(-c5csc(C(CCCN=C(N)N)N(C)C)n5)oc4C)n3)oc2C)oc1C)C(=O)N[C@H](c1nc(-c2nc(-c3nc(-c4nc(C5=NC(C(=O)N[C@@H](Cc6ccccc6)C(=O)O)C(C)O5)co4)co3)co2)co1)[C@@H](C)CC (stereo partly drawn) [PZN, plantazolicin]
Bacillus brevis ATCC8246
  Degree of inhibition in a bioassay: +
Bacillus subtilis 168
  Degree of inhibition in a bioassay: +
[1]
  Degree of inhibition in a bioassay: +
[2]
  Degree of inhibition in a bioassay: +
Micrococcus luteus
  Degree of inhibition in a bioassay: +
Bacillus pumilus
  Degree of inhibition in a bioassay: −
Bacillus subtilis CU1065
  Degree of inhibition in a bioassay: +
Bacillus subtilis HB0042
  Degree of inhibition in a bioassay: ++
Bacillus sphaericus
  Degree of inhibition in a bioassay: +
Paenibacillus polymyxa
  Degree of inhibition in a bioassay: −
[3]
  Degree of inhibition in a bioassay: +
Bacillus megaterium 7A1
  Degree of inhibition in a bioassay: ++
Arthrobacter sp.
  Degree of inhibition in a bioassay: −
Staphylococcus aureus
  Degree of inhibition in a bioassay: −
E. coli K12
  Degree of inhibition in a bioassay: −
Klebsiella terrigena
  Degree of inhibition in a bioassay: −
Pseudomonas sp.
  Degree of inhibition in a bioassay: −
Erwinia caratovora
  Degree of inhibition in a bioassay: −
[4]
  Growth inhibition / activity against B. anthracis in microbroth dilution bioassay: potent growth inhibition
  MIC99: 4 µg/mL (≈ 2.99 µM)
Streptococcus pyogenes
  Growth inhibition in microbroth dilution bioassay: only inhibited by very high concentrations
Listeria monocytogenes
  Growth inhibition in microbroth dilution bioassay: unaffected
[5]
  Growth inhibition in microbroth dilution bioassay: unaffected
[6]
  Growth inhibition in microbroth dilution bioassay: unaffected
B. amylo. FZB42
  Susceptibility to the action of PZN: no observable inhibition
B. pumilus ATCC 7061
  Susceptibility to the action of PZN: no observable inhibition
B. amylo. (NRRL B-14393)
  Susceptibility to the action of PZN: completely resistant
[7]
  Inhibition zones in agar diffusion bioassay: inhibition zones were not observed
[8]
  Mode of action (bactericidal) on reculturing of treated cells in the absence of PZN: bactericidal
B. anthracis
  Cell morphology by DIC microscopy: massive lysis
